# In PubChem BioAssay (NCI):
#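 These data come from cells grown in 96-well plates and exposed to compound for 48 hours at five concentrations. At the TGI there is no net growth.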
# Legend:
# Assay in all cases: growth of human tumour cells (NCI), 48 h
# HOP-92 NSCLC = tested on: HOP-92 NSCLC
# UO-31 renal = tested on: UO-31 renal
# HL-60(TB) leukemia = tested on: HL-60(TB) leukemia
# NCI-H460 lung = tested on: NCI-H460 lung
# MALME-3M melanoma = tested on: MALME-3M melanoma
# OVCAR-3 ovarian = tested on: OVCAR-3 ovarian
# UACC-257 melanoma = tested on: UACC-257 melanoma
# RPMI-8226 leukemia = tested on: RPMI-8226 leukemia
# SK-MEL-28 melanoma = tested on: SK-MEL-28 melanoma
# NCI-H23 lung = tested on: NCI-H23 lung
# OVCAR-4 ovarian = tested on: OVCAR-4 ovarian
# SF-268 CNS = tested on: SF-268 CNS
# RXF 393 renal = tested on: RXF 393 renal
# CCRF-CEM leukemia = tested on: CCRF-CEM leukemia
# HCT-15 colon = tested on: HCT-15 colon
# SW-620 colon = tested on: SW-620 colon
# PC-3 prostate = tested on: PC-3 prostate
# T-47D breast = tested on: T-47D breast
# DU-145 prostate = tested on: DU-145 prostate
# MOLT-4 leukemia = tested on: MOLT-4 leukemia
# A549 NSCLC = tested on: A549 NSCLC
# SF-539 CNS = tested on: SF-539 CNS
# NCI-H522 lung = tested on: NCI-H522 lung
# SK-MEL-2 melanoma = tested on: SK-MEL-2 melanoma
# IGROV1 ovarian = tested on: IGROV1 ovarian
# M14 melanoma = tested on: M14 melanoma
# MDA-N = tested on: MDA-N
# K-562 leukemia = tested on: K-562 leukemia
# COLO 205 colon = tested on: COLO 205 colon
# MDA-MB-435 = tested on: MDA-MB-435
# 786-0 renal = tested on: 786-0 renal
# MCF7 breast = tested on: MCF7 breast
# SK-OV-3 ovarian = tested on: SK-OV-3 ovarian
# SNB-19 CNS = tested on: SNB-19 CNS
# NCI/ADR-RES ovarian = tested on: NCI/ADR-RES ovarian
# MDA-MB-231 breast = tested on: MDA-MB-231 breast
# A498 renal = tested on: A498 renal
# OVCAR-8 ovarian = tested on: OVCAR-8 ovarian
# LOX IMVI melanoma = tested on: LOX IMVI melanoma
# CAKI-1 renal = tested on: CAKI-1 renal
# HS 578T breast = tested on: HS 578T breast
# NCI-H226 lung = tested on: NCI-H226 lung
# U251 CNS = tested on: U251 CNS
# HCC-2998 colon = tested on: HCC-2998 colon
# SNB-75 CNS = tested on: SNB-75 CNS
# ACHN renal = tested on: ACHN renal
# TK-10 renal = tested on: TK-10 renal
# KM12 colon = tested on: KM12 colon
# OVCAR-5 ovarian = tested on: OVCAR-5 ovarian
# HCT-116 colon = tested on: HCT-116 colon
# HT29 colon = tested on: HT29 colon
# SK-MEL-5 melanoma = tested on: SK-MEL-5 melanoma
# HOP-62 NSCLC = tested on: HOP-62 NSCLC
# EKVX NSCLC = tested on: EKVX NSCLC
# UACC-62 melanoma = tested on: UACC-62 melanoma
# SN12C renal = tested on: SN12C renal
# SF-295 CNS = tested on: SF-295 CNS
# SR leukemia = tested on: SR leukemia
smiles,measurement,setting,value
N/C(=N/N=C/c1cc(Br)cc(Br)c1O)NO,TGI,HOP-92 NSCLC,25.2 µM
same,TGI,UO-31 renal,8.4 µM
same,TGI,HL-60(TB) leukemia,2.31 µM
same,TGI,NCI-H460 lung,27.5 µM
same,TGI,MALME-3M melanoma,17.1 µM
same,TGI,OVCAR-3 ovarian,13.1 µM
same,TGI,UACC-257 melanoma,99.5 µM
same,TGI,RPMI-8226 leukemia,15.7 µM
same,TGI,SK-MEL-28 melanoma,> 100 µM
same,TGI,NCI-H23 lung,> 80.2 µM
same,TGI,OVCAR-4 ovarian,71.4 µM
same,TGI,SF-268 CNS,8.75 µM
same,TGI,RXF 393 renal,53.4 µM
same,TGI,CCRF-CEM leukemia,3.26 µM
same,TGI,HCT-15 colon,> 46.6 µM
same,TGI,SW-620 colon,> 100 µM
same,TGI,PC-3 prostate,> 59 µM
same,TGI,T-47D breast,11.2 µM
same,TGI,DU-145 prostate,> 23.8 µM
same,TGI,MOLT-4 leukemia,5.58 µM
same,TGI,A549 NSCLC,53.7 µM
same,TGI,SF-539 CNS,> 31.9 µM
same,TGI,NCI-H522 lung,88.6 µM
same,TGI,SK-MEL-2 melanoma,82.9 µM
same,TGI,IGROV1 ovarian,4.66 µM
same,TGI,M14 melanoma,12.3 µM
same,TGI,MDA-N,> 100 µM
same,TGI,K-562 leukemia,21.5 µM
same,TGI,COLO 205 colon,49.8 µM
same,TGI,MDA-MB-435,> 81.2 µM
same,TGI,786-0 renal,> 40.7 µM
same,TGI,MCF7 breast,> 89.3 µM
same,TGI,SK-OV-3 ovarian,> 47.6 µM
same,TGI,SNB-19 CNS,> 80.7 µM
same,TGI,NCI/ADR-RES ovarian,18.9 µM
same,TGI,MDA-MB-231 breast,40.6 µM
same,TGI,A498 renal,16 µM
same,TGI,OVCAR-8 ovarian,> 25.4 µM
same,TGI,LOX IMVI melanoma,19.8 µM
same,TGI,CAKI-1 renal,2.54 µM
same,TGI,HS 578T breast,> 75.3 µM
same,TGI,NCI-H226 lung,6.54 µM
same,TGI,U251 CNS,> 100 µM
same,TGI,HCC-2998 colon,> 53.8 µM
same,TGI,SNB-75 CNS,> 28.3 µM
same,TGI,ACHN renal,9.66 µM
same,TGI,TK-10 renal,> 45.6 µM
same,TGI,KM12 colon,51.4 µM
same,TGI,OVCAR-5 ovarian,> 100 µM
same,TGI,HCT-116 colon,44 µM
same,TGI,HT29 colon,> 100 µM
same,TGI,SK-MEL-5 melanoma,38.5 µM
same,TGI,HOP-62 NSCLC,25.9 µM
same,TGI,EKVX NSCLC,75.1 µM
same,TGI,UACC-62 melanoma,7.52 µM
same,TGI,SN12C renal,8.8 µM
same,TGI,SF-295 CNS,> 45.9 µM
Cc1cc2c(c(C)c1O)C(C)(C)CN2C(=O)C(C)(C)C,TGI,HOP-92 NSCLC,78.5 µM
same,TGI,UO-31 renal,> 100 µM
same,TGI,HL-60(TB) leukemia,> 100 µM
same,TGI,NCI-H460 lung,> 100 µM
same,TGI,OVCAR-3 ovarian,28.3 µM
same,TGI,UACC-257 melanoma,> 100 µM
same,TGI,RPMI-8226 leukemia,> 100 µM
same,TGI,SK-MEL-28 melanoma,> 100 µM
same,TGI,NCI-H23 lung,> 100 µM
same,TGI,OVCAR-4 ovarian,> 100 µM
same,TGI,SF-268 CNS,> 100 µM
same,TGI,RXF 393 renal,86.9 µM
same,TGI,CCRF-CEM leukemia,> 100 µM
same,TGI,HCT-15 colon,> 100 µM
same,TGI,SW-620 colon,> 100 µM
same,TGI,PC-3 prostate,> 100 µM
same,TGI,T-47D breast,> 100 µM
same,TGI,DU-145 prostate,> 100 µM
same,TGI,MOLT-4 leukemia,> 100 µM
same,TGI,A549 NSCLC,> 100 µM
same,TGI,SF-539 CNS,> 100 µM
same,TGI,NCI-H522 lung,> 100 µM
same,TGI,IGROV1 ovarian,> 100 µM
same,TGI,M14 melanoma,> 100 µM
same,TGI,MDA-N,> 100 µM
same,TGI,K-562 leukemia,> 100 µM
same,TGI,COLO 205 colon,> 100 µM
same,TGI,MDA-MB-435,> 100 µM
same,TGI,786-0 renal,> 100 µM
same,TGI,MCF7 breast,> 100 µM
same,TGI,SK-OV-3 ovarian,> 100 µM
same,TGI,SNB-19 CNS,> 100 µM
same,TGI,NCI/ADR-RES ovarian,41.2 µM
same,TGI,MDA-MB-231 breast,> 100 µM
same,TGI,A498 renal,> 100 µM
same,TGI,OVCAR-8 ovarian,> 100 µM
same,TGI,LOX IMVI melanoma,> 100 µM
same,TGI,HS 578T breast,> 100 µM
same,TGI,NCI-H226 lung,> 100 µM
same,TGI,U251 CNS,> 100 µM
same,TGI,HCC-2998 colon,> 100 µM
same,TGI,SNB-75 CNS,89.2 µM
same,TGI,ACHN renal,> 100 µM
same,TGI,TK-10 renal,> 100 µM
same,TGI,KM12 colon,> 100 µM
same,TGI,OVCAR-5 ovarian,> 100 µM
same,TGI,HCT-116 colon,> 100 µM
same,TGI,HT29 colon,> 100 µM
same,TGI,SK-MEL-5 melanoma,> 100 µM
same,TGI,HOP-62 NSCLC,> 100 µM
same,TGI,EKVX NSCLC,> 100 µM
same,TGI,UACC-62 melanoma,> 100 µM
same,TGI,SN12C renal,> 100 µM
same,TGI,SF-295 CNS,> 100 µM
CC(NNC(=S)N1CCCCCC1)c1cccnn1 (centres undefined),TGI,UO-31 renal,2.67 µM
same,TGI,HL-60(TB) leukemia,> 32.2 µM
same,TGI,NCI-H460 lung,> 21.6 µM
same,TGI,MALME-3M melanoma,> 100 µM
same,TGI,OVCAR-3 ovarian,> 100 µM
same,TGI,UACC-257 melanoma,3.77 µM
same,TGI,RPMI-8226 leukemia,> 100 µM
same,TGI,SK-MEL-28 melanoma,> 34.5 µM
same,TGI,NCI-H23 lung,> 100 µM
same,TGI,RXF 393 renal,0.57 µM
same,TGI,CCRF-CEM leukemia,1.1 µM
same,TGI,HCT-15 colon,> 100 µM
same,TGI,SW-620 colon,> 100 µM
same,TGI,PC-3 prostate,> 100 µM
same,TGI,T-47D breast,> 35.1 µM
same,TGI,DU-145 prostate,> 100 µM
same,TGI,MOLT-4 leukemia,> 100 µM
same,TGI,SF-539 CNS,0.939 µM
same,TGI,SK-MEL-2 melanoma,> 78.8 µM
same,TGI,M14 melanoma,4.94 µM
same,TGI,MDA-N,> 100 µM
same,TGI,K-562 leukemia,> 58.7 µM
same,TGI,COLO 205 colon,> 100 µM
same,TGI,MDA-MB-435,> 56.2 µM
same,TGI,786-0 renal,> 100 µM
same,TGI,MCF7 breast,0.901 µM
same,TGI,SK-OV-3 ovarian,20.7 µM
same,TGI,NCI/ADR-RES ovarian,> 88.8 µM
same,TGI,MDA-MB-231 breast,> 100 µM
same,TGI,A498 renal,9.82 µM
same,TGI,OVCAR-8 ovarian,> 100 µM
same,TGI,LOX IMVI melanoma,> 100 µM
same,TGI,CAKI-1 renal,> 100 µM
same,TGI,HS 578T breast,> 100 µM
same,TGI,NCI-H226 lung,> 43.4 µM
same,TGI,U251 CNS,> 80.4 µM
same,TGI,HCC-2998 colon,> 100 µM
same,TGI,SNB-75 CNS,> 43.4 µM
same,TGI,ACHN renal,3.09 µM
same,TGI,TK-10 renal,> 33.3 µM
same,TGI,KM12 colon,> 100 µM
same,TGI,HT29 colon,> 100 µM
same,TGI,SK-MEL-5 melanoma,2.31 µM
same,TGI,HOP-62 NSCLC,> 32.5 µM
same,TGI,UACC-62 melanoma,1.14 µM
same,TGI,SN12C renal,> 100 µM
same,TGI,SF-295 CNS,> 39.6 µM
same,TGI,SR leukemia,> 100 µM
